The supplement of paper PMC11451515

Columns and labels:
P12-Ichikawa [1] = test: cell viability relative to DMSO control; higher = less cytotoxic; details: RPMI 5 mM glucose + 10% dialyzed FBS, 48 h
How it was run: (§1)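 NOMO1 or SEM (500 cells/well) or P12-Ichikawa (1000 cells/well) leukemia cells were adapted for at least four passages in each medium. They were seeded in 1536-well plates (5 μl) and pin-dosed with library compounds in DMSO over an 11-point threefold series, 47 μM to 0.79 nM. CellTiter-Glo One luminescence was read after 48 h at 37°C. Viability is the per-plate percentage relative to DMSO wells, with cell-free wells as background.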

NOMO1 [2] = test: as above; details: 48 h
How it was run: as §1

SEM cells [3] = test: as above; details: 48 h
How it was run: as §1

P12-Ichikawa [4] = test: AUC of viability dose-response curve (% viability x log10 dose units); higher = less sensitive; details: 48 h
How it was run: (§2)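 Library compounds in DMSO were applied for 48 h at 37°C at 11 threefold doses (47 μM to 0.79 nM) to medium-adapted leukemia cells in 1536-well plates holding 500 or 1000 cells/well. Luminescence from CellTiter-Glo One was normalised plate by plate against DMSO and cell-free wells. Area under the curve came from trapezoidal integration of a log-logistic fit, after scaling curves that rose above full viability and discarding those that failed quality control. The fit had four parameters and used log10 doses.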

NOMO1 [5] = test: as above; details: 48 h
How it was run: as §2

SEM cells [6] = test: as above; details: 48 h
How it was run: as §2

NCCc1ccc(O)c(O)c1
Details	AUC of viability dose-response curve	cell viability [%]
NOMO1 [5], HPLM + 10% dialyzed FBS	410	–
NOMO1 [5], RPMI 5 mM glucose + 10% FBS	426	–
NOMO1 [5], RPMI 5 mM glucose + 10% dialyzed FBS	429	–
P12-Ichikawa [1], 0.000781 µM	–	128
P12-Ichikawa [1], 0.00234 µM	–	124
P12-Ichikawa [1], 0.00702 µM	–	123
P12-Ichikawa [1], 0.0211 µM	–	126
P12-Ichikawa [1], 0.0632 µM	–	131
P12-Ichikawa [1], 0.19 µM	–	123
P12-Ichikawa [1], 0.569 µM	–	129
P12-Ichikawa [1], 1.71 µM	–	121
P12-Ichikawa [1], 5.12 µM	–	121
P12-Ichikawa [1], 15.4 µM	–	124
P12-Ichikawa [1], 46.1 µM	–	110
P12-Ichikawa [4], HPLM + 10% dialyzed FBS	464	–
P12-Ichikawa [4], RPMI 5 mM glucose + 10% FBS	463	–
P12-Ichikawa [4], RPMI 5 mM glucose + 10% dialyzed FBS	474	–
SEM cells [6], HPLM + 10% dialyzed FBS	431	–
SEM cells [6], RPMI 5 mM glucose + 10% FBS	450	–
SEM cells [6], RPMI 5 mM glucose + 10% dialyzed FBS	449	–

cell viability [%]
Details	HPLM + 10% dialyzed FBS	RPMI 5 mM glucose + 10% FBS	RPMI 5 mM glucose + 10% dialyzed FBS
NOMO1 [2], 0.000781 µM	118	120	–
NOMO1 [2], 0.00234 µM	124	112	–
NOMO1 [2], 0.00702 µM	123	115	–
NOMO1 [2], 0.0211 µM	119	127	–
NOMO1 [2], 0.0632 µM	131	121	–
NOMO1 [2], 0.19 µM	112	124	–
NOMO1 [2], 0.569 µM	131	113	–
NOMO1 [2], 1.71 µM	125	110	–
NOMO1 [2], 5.12 µM	104	110	–
NOMO1 [2], 15.4 µM	27.5	54.3	–
NOMO1 [2], 46.1 µM	7.83	14	–
SEM cells [3], 0.000781 µM	119	113	99
SEM cells [3], 0.00234 µM	137	136	124
SEM cells [3], 0.00702 µM	121	123	107
SEM cells [3], 0.0211 µM	133	123	111
SEM cells [3], 0.0632 µM	130	127	123
SEM cells [3], 0.19 µM	132	139	111
SEM cells [3], 0.569 µM	131	122	109
SEM cells [3], 1.71 µM	110	96.5	105
SEM cells [3], 5.12 µM	109	128	107
SEM cells [3], 15.4 µM	86	107	95.2
SEM cells [3], 46.1 µM	8.51	18.6	11.5

Cn1ccc2cc3c(cc21)CCN3C(=O)Nc1cccnc1
SEM cells [3], HPLM + 10% dialyzed FBS
Details	cell viability [%]
0.000781 µM	100
0.00234 µM	113
0.00702 µM	132
0.0211 µM	116
0.0632 µM	123
0.19 µM	158
0.569 µM	140
1.71 µM	127
5.12 µM	125
15.4 µM	137
46.1 µM	59.8

AUC of viability dose-response curve
Details	NOMO1 [5]	P12-Ichikawa [4]	SEM cells [6]
HPLM + 10% dialyzed FBS	460	464	464
RPMI 5 mM glucose + 10% FBS	451	462	461
RPMI 5 mM glucose + 10% dialyzed FBS	466	463	461

Clc1ccc2ncc(-c3cccc(NC4CNC4)n3)n2c1
cell viability [%], SEM cells [3]
Details	HPLM + 10% dialyzed FBS	RPMI 5 mM glucose + 10% FBS
0.000781 µM	120	119
0.00234 µM	121	122
0.00702 µM	125	131
0.0211 µM	125	121
0.0632 µM	136	147
0.19 µM	122	141
0.569 µM	115	119
1.71 µM	113	115
5.12 µM	77.5	105
15.4 µM	67.1	76.9
46.1 µM	45.8	47.6

AUC of viability dose-response curve
Details	NOMO1 [5]	P12-Ichikawa [4]	SEM cells [6]
HPLM + 10% dialyzed FBS	433	441	412
RPMI 5 mM glucose + 10% FBS	455	439	427
RPMI 5 mM glucose + 10% dialyzed FBS	443	443	411
